Series [1] relates to B. subtilis 1A751 (pALCP2G). Nature of the series: GFP release assay. The series is classed as cell-based, Bacillus subtilis. The settings on record: 2 × 10^6 CFU in PBS, 1 h 37 °C, 0.23 to 15 μM BacSp222, fluorescence of supernatant 480/510 nm. The protocol:
The bacteria transformed with GFP-encoding plasmids (pCN68[59] for S. aureus RN4220; pALCP2G[60] for B. subtilis 1A751[61] and E. coli DH5α) were grown overnight in TSB supplemented with appropriate antibiotics, washed twice and finally suspended in PBS. Fifty microliters of the suspensions containing 2 × 10^6 CFU of bacteria were then incubated for 1 h at 37 °C with serial dilutions of BacSp222 at concentrations ranging from 0.23 to 15 μM. Then, the bacteria were spun down, and the fluorescence in the supernatant was determined (Synergy H1 microplate reader, BioTek, 480/510 nm excitation/emission wavelengths). As the controls for 100% GFP release, S. aureus and B. subtilis were lysed using lysostaphin and chicken egg white lysozyme (Sigma), respectively, whereas the E. coli cells were disrupted by ultrasonication.

Another series deals with T1, V8 peptidase (Staphylococcus aureus, UniProt P0C1U8).
T1 construct: purchased Biocentrum
T1 sequence (P0C1U8 69-336): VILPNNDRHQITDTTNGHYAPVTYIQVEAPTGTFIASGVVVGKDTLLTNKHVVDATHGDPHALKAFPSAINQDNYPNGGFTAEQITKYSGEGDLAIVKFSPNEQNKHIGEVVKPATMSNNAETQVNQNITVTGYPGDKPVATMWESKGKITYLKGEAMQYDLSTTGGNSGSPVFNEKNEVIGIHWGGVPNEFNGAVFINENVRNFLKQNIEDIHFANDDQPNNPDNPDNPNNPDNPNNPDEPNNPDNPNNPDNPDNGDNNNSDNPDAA
In words: Susceptibility to proteolysis, residual bactericidal activity. It counts as in vitro ADME, S. aureus. The note with it: 30 μM peptide, 100 mM sodium phosphate pH 7.8, enzyme:peptide 1:50 or 1:10 (w/w), 3 hours, 37 °C; residual activity by radial diffusion assay on B. subtilis; triplicate. The protocol: (§1) The bactericidal activity of BacSp222 was also determined using the radial diffusion assay. In TSB agar (1%, w/v) containing a 200× diluted overnight culture of Bacillus subtilis ATCC 6633, wells of 2.4-mm diameter were created by drilling out the agar and filling the hole with 10 μl of the BacSp222 preparation for testing. Following overnight incubation at 37 °C, the bactericidal activity was measured as the area of the inhibition zones.
(§2) The temperature stability of BacSp222 (30 μM final concentration) was determined in PBS. The solution was incubated for 1 or 3 h at 72 °C (typical temperature of pasteurization) or at 100 °C. Independently, a solution of bacteriocin was also subjected to a full cycle of autoclaving (20 min at 121 °C). The susceptibility of BacSp222 to proteolysis was verified using S. aureus staphopain C and V8 peptidase, human neutrophil elastase, human cathepsin G (Biocentrum), bovine TPCK-treated trypsin, pepsin from porcine gastric mucosa (Sigma), and proteinase K (A&A Biotechnology). […] The residual activity was determined with the radial diffusion assay using Bacillus subtilis as an indicator strain. […]

The next series has as its system staphopain C (StpC). The series is described as above. The note with it: 30 μM peptide, 100 mM Tris-HCl pH 7.5 with 5 mM cysteine hydrochloride and 5 mM EDTA, enzyme:peptide 1:50 or 1:10 (w/w), 3 hours, 37 °C; residual activity by radial diffusion assay on B. subtilis; triplicate. It counts as in vitro ADME, S. aureus. The protocol:
as §1, §2

Series [2] can be described thus: Temperature stability, residual bactericidal activity. It counts as physicochemical. The note with it: 30 μM in PBS, full cycle of autoclaving, 20 min at 121 °C; radial diffusion assay on B. subtilis; 100% = untreated BacSp222; triplicate ± SD. As for the experimental part: as §1, §2

These results are taken from article PMC4585962, “A peptide factor secreted by Staphylococcus pseudintermedius exhibits properties of both bacteriocins and virulence factors” (Scientific Reports, 2015).

No end group written: not given here. *: point of attachment. For = O=C*

Regarding “For-MAGLLRFLLSKGRALYNWAKSHVGKVWEWLKSGATYEQIKEWIENALGWR [BacSp222]”, in series [1], the “leakage of GFP from recombinant cells” value was “dose-dependent leakage of GFP was observed”. The “activity of BacSp222 after incubation with the enzyme” value at V8 peptidase and with staphopain C (StpC) was “not significantly reduced” each time. In addition, the “activity against the indicator strain after autoclaving” value in series [2] came out at 55 ± 8.8%.
